# Assay results as given in patent US20050233904A1, “Herbicide-safener combination” (Bayer CropScience GmbH, priority 2004, published 2005).
# Key:
# Assay type in all cases: in vivo
# [1] = test system: harmful plants such as Sinapis alba, Chrysanthemum segetum, Avena sativa, Stellaria media, Echinochloa crus-galli, Lolium multiflorum, Setaria viridis …; experiment: Pre-emergence action against weeds (greenhouse pot test, optical scoring vs untreated controls); conditions: herbicide-safener combination with the safeners dymron (b-14), fenclorim (b-11), cumyluron (b-4), isoxadifen-ethyl (II-9), mefenpyr-diethyl (II-1), cloquintocet-mexyl (III-1), S3-1, h-1, h-2, h-3, dietholate (b-7), disulfoton (b-5), 1,8-naphthalic anhydride (b-1), fluxofenim (b-10), dichlormid (IV-1), benoxacor (IV-2), flurazole (b-12), R-29148 (IV-4); application rate of 100 g or less of herbicid
# Text: (§1) Seeds or rhizome pieces of monocotyledonous and dicotyledonous weed plants were placed in sandy loam soil in cardboard pots and covered with soil. The active compounds (A) and (B), formulated in the form of wettable powders or emulsion concentrates, were then applied to the surface of the covering soil in various dosages as an aqueous suspension or emulsion using a water application rate of 600 to 800 I/ha (converted).
# After the treatment, the pots were placed in a greenhouse and kept under good growth conditions for the weeds. Optical scoring of the damage to the plants or emerged plants was carried out after emergence of the test plants after a trial period of 3 to 4 weeks, in comparison to untreated controls. As shown by the results, the tested herbicide-safener combinations have good herbicidal pre-emergence activity against a broad spectrum of weed grasses and broad-leaved weeds.
# [2] = test system: harmful plants such as Sinapis alba, Echinochloa crus-galli, Lolium multiflorum, Chrysanthemum segetum, Setaria viridis, Abutilon theophrasti, Amaranthus …; experiment: Post-emergence action against weeds (greenhouse pot test, visual scoring vs untreated controls); conditions: herbicide-safener combination with the safeners dymron (b-14), fenclorim (b-11), cumyluron (b-4), isoxadifen-ethyl (II-9), mefenpyr-diethyl (II-1), cloquintocet-mexyl (III-1), S3-1, h-1, h-2, h-3, dietholate (b-7), disulfoton (b-5), 1,8-naphthalic anhydride (b-1), fluxofenim (b-10), dichlormid (IV-1), benoxacor (IV-2), flurazole (b-12), R-29148 (IV-4); treated at three-leaf stage; application rate
# Method: (§2) Seeds or rhizome pieces of monocotyledonous and dicotyledonous weeds were placed into sandy loam soil in plastic pots, covered with soil and grown in a greenhouse under good growth conditions. Three weeks after sowing, the test plants were treated at the three-leaf stage. The compounds according to the invention, formulated as wettable powders or as emulsion concentrates, were sprayed onto the green parts of the plants at various dosages using a water application rate of 600 to 800 I/ha (converted). The test plants were stood in the greenhouse under optimum growth conditions for about three to four weeks, and the action of the preparations was then scored visually in comparison to untreated controls. Post-emergence, too, the herbicide-safener combinations according to the invention have good herbicidal activity against a broad spectrum of economically important weed grasses and broad-leaved weeds.
# [3] = test system: crop plants such as cotton, oil seed rape, sugar beet and Gramineae crops such as barley, wheat, rye, millet, corn or rice; conditions: herbicide-safener combination with the safeners dymron (b-14), fenclorim (b-11), cumyluron (b-4), isoxadifen-ethyl (II-9), mefenpyr-diethyl (II-1), cloquintocet-mexyl (III-1), S3-1, h-1, h-2, h-3, dietholate (b-7), disulfoton (b-5), 1,8-naphthalic anhydride (b-1), fluxofenim (b-10), dichlormid (IV-1), benoxacor (IV-2), flurazole (b-12), R-29148 (IV-4); pre-emergence or post-emergence method; score
# Text: as §1, §2
# In further greenhouse trials, seeds of a relatively large number of crop plants and weeds were placed into sandy loam soil and covered with soil. Some of the pots were immediately treated as described in Section 1, the others were placed in a greenhouse until the plants had developed two to three true leaves and were then sprayed with various dosages of the herbicide-safener combinations according to the invention, as described in Section 2.
SMILES,"herbicidal activity against harmful plants, pre-emergence method [1]","herbicidal activity against harmful plants, post-emergence method [2]",damage to crop plants [3]
CCOc1cc(OC)nc(NC(=O)NS(=O)(=O)c2ncccc2C2=NOCCO2)n1 [Compound I-1],very good herbicidal activity,very good herbicidal activity,did not cause any damage
COc1cc(C)nc(NC(=O)[N-]S(=O)(=O)c2ncccc2C2=NOCCO2)n1.[Na+] [Compound I-3],very good herbicidal activity,very good herbicidal activity,did not cause any damage
COc1cc(N(C)C)nc(NC(=O)NS(=O)(=O)c2ncccc2C2=NOCCO2)n1 [Compound I-8],very good herbicidal activity,very good herbicidal activity,did not cause any damage
COc1cc(Cl)nc(NC(=O)NS(=O)(=O)c2ncccc2C2=NOCCO2)n1 [Compound I-9],very good herbicidal activity,very good herbicidal activity,did not cause any damage
COc1cc(Cl)nc(NC(=O)[N-]S(=O)(=O)c2ncccc2C2=NOCCO2)n1.[Na+] [Compound I-10],very good herbicidal activity,very good herbicidal activity,did not cause any damage
COc1cc(OC)nc(NC(=O)NS(=O)(=O)c2ncccc2C2=NOCCO2)n1 [Compound I-11],very good herbicidal activity,very good herbicidal activity,did not cause any damage
COc1cc(OC)nc(NC(=O)[N-]S(=O)(=O)c2ncccc2C2=NOCCO2)n1.[Na+] [Compound I-12],very good herbicidal activity,very good herbicidal activity,did not cause any damage
CCOc1cc(OCC)nc(NC(=O)[N-]S(=O)(=O)c2ncccc2C2=NOCCO2)n1.[Na+] [Compound I-14],very good herbicidal activity,very good herbicidal activity,did not cause any damage
CCOc1cc(Cl)nc(NC(=O)NS(=O)(=O)c2ncccc2C2=NOCCO2)n1 [Compound I-21],very good herbicidal activity,very good herbicidal activity,did not cause any damage
CCOc1cc(Cl)nc(NC(=O)[N-]S(=O)(=O)c2ncccc2C2=NOCCO2)n1.[Na+] [Compound I-22],very good herbicidal activity,very good herbicidal activity,did not cause any damage
Cc1cc(C)nc(NC(=O)NS(=O)(=O)c2ncccc2C2=NOCCO2)n1 [Compound I-23],very good herbicidal activity,very good herbicidal activity,did not cause any damage
Cc1cc(Cl)nc(NC(=O)NS(=O)(=O)c2ncccc2C2=NOCCO2)n1 [Compound I-29],very good herbicidal activity,very good herbicidal activity,did not cause any damage
Cc1cc(Cl)nc(NC(=O)[N-]S(=O)(=O)c2ncccc2C2=NOCCO2)n1.[Na+] [Compound I-30],very good herbicidal activity,very good herbicidal activity,did not cause any damage
COc1nc(NC(=O)NS(=O)(=O)c2ncccc2C2=NOCCO2)nc(OC)n1 [Compound I-51],very good herbicidal activity,very good herbicidal activity,did not cause any damage
COc1nc(NC(=O)[N-]S(=O)(=O)c2ncccc2C2=NOCCO2)nc(OC)n1.[Na+] [Compound I-52],very good herbicidal activity,very good herbicidal activity,did not cause any damage
COc1nc(NC(=O)[N-]S(=O)(=O)c2ncccc2C2=NOCCO2)nc(N(C)C)n1.[Na+] [Compound I-60],very good herbicidal activity,very good herbicidal activity,did not cause any damage
CCOc1nc(Cl)nc(NC(=O)[N-]S(=O)(=O)c2ncccc2C2=NOCCO2)n1.[Na+] [Compound I-70],very good herbicidal activity,very good herbicidal activity,did not cause any damage
CN(C)c1nc(NC(=O)NS(=O)(=O)c2ncccc2C2=NOCCO2)nc(OCC(F)(F)F)n1 [Compound I-142],very good herbicidal activity,very good herbicidal activity,did not cause any damage
O=C(Nc1nc(Cl)cc(OCC(F)(F)F)n1)NS(=O)(=O)c1ncccc1C1=NOCCO1 [Compound I-143],very good herbicidal activity,very good herbicidal activity,did not cause any damage
O=C([N-]S(=O)(=O)c1ncccc1C1=NOCCO1)Nc1nc(Cl)cc(OCC(F)(F)F)n1.[Na+] [Compound I-145],very good herbicidal activity,very good herbicidal activity,did not cause any damage
